Structures are written as SMILES. Values joined by “and” are separate entries in the source; they are usually repeats but may differ in a detail not shown here. Equal entries are not always repeated. Toxic doses and inconclusive results are not listed.

In this experiment the test system is CD2F1 mice, L1210 leukemia ip, survival T/C. Put plainly: NCI In Vivo Anticancer Drug Screen. Data for tumor model L1210 Leukemia (intraperitoneal) in CD2F1 (CDF1) mice. The following applies: higher = longer survival. In outline:
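Each value reflects a quotient of treated over vehicle control outcomes in mice with a transplanted tumor.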

Setting [1] is: endpoint: mean survival time, dose: 50.0 mg/kg/injection, schedule: Q01DX009 (ip), vehicle: saline with Tween-80.
Setting [2] is: endpoint: mean survival time, dose: 100.0 mg/kg/injection, schedule: Q01DX009 (ip), vehicle: saline with Tween-80.
[3] abbreviates: endpoint: mean survival time, dose: 200.0 mg/kg/injection, schedule: Q01DX009 (ip), vehicle: saline with Tween-80.
[4] abbreviates: endpoint: mean survival time, dose: 25.0 mg/kg/injection, schedule: Q04DX003 (ip), vehicle: saline.
[5] abbreviates: endpoint: mean survival time, dose: 50.0 mg/kg/injection, schedule: Q04DX003 (ip), vehicle: saline.
Setting [6] is: endpoint: mean survival time, dose: 100.0 mg/kg/injection, schedule: Q04DX003 (ip), vehicle: saline.
The mark [7] stands for this setting: endpoint: mean survival time, dose: 100.0 mg/kg/injection, schedule: Q04DX003 (ip), vehicle: saline with Tween-80.
Setting [8] is: endpoint: mean survival time, dose: 200.0 mg/kg/injection, schedule: Q04DX003 (ip), vehicle: saline with Tween-80.
[9] abbreviates: endpoint: mean survival time, dose: 400.0 mg/kg/injection, schedule: Q04DX003 (ip), vehicle: saline with Tween-80.
[10] abbreviates: endpoint: mean survival time, dose: 400.0 mg/kg/injection, schedule: Q01DX009 (ip), vehicle: saline with Tween-80.
Where [11] appears, read: endpoint: mean survival time, dose: 100.0 mg/kg/injection, schedule: Q04DX003 (ip), vehicle: other.
[12] abbreviates: endpoint: mean survival time, dose: 200.0 mg/kg/injection, schedule: Q04DX003 (ip), vehicle: other.
[13] abbreviates: endpoint: mean survival time, dose: 100.0 mg/kg/injection, schedule: Q01DX001 (ip), vehicle: saline with Tween-80.
Where [14] appears, read: endpoint: mean survival time, dose: 200.0 mg/kg/injection, schedule: Q01DX001 (ip), vehicle: saline with Tween-80.
[15] abbreviates: endpoint: mean survival time, dose: 400.0 mg/kg/injection, schedule: Q01DX001 (ip), vehicle: saline with Tween-80.

In the case of `CC12CCC=CC1=CC(=O)CC2` (configuration not stated), the T/C by setting is: (endpoint: mean survival time, dose: 100.0 mg/kg/injection, schedule: Q04DX002 (ip), vehicle: saline with Tween-80) 96 % of control; (endpoint: mean survival time, dose: 200.0 mg/kg/injection, schedule: Q04DX002 (ip), vehicle: saline with Tween-80) 100 % of control; (endpoint: mean survival time, dose: 400.0 mg/kg/injection, schedule: Q04DX002 (ip), vehicle: saline with Tween-80) 124 % of control.

As for `O=C(NCCCCCCCCNC(=O)N1CC1)N1CC1`, the T/C (endpoint: mean survival time, dose: 1.5 mg/kg/injection, schedule: Q01DX001 (ip), vehicle: carboxymethylcellulose (CMC)) is 117 % of control; the T/C (endpoint: mean survival time, dose: 2.25 mg/kg/injection, schedule: Q01DX001 (ip), vehicle: carboxymethylcellulose (CMC)) was 111 % of control; the T/C (endpoint: mean survival time, dose: 3.3 mg/kg/injection, schedule: Q01DX001 (ip), vehicle: carboxymethylcellulose (CMC)) is 121 % of control; the T/C (endpoint: mean survival time, dose: 5.0 mg/kg/injection, schedule: Q01DX001 (ip), vehicle: carboxymethylcellulose (CMC)) is 122 % of control; the T/C (endpoint: mean survival time, dose: 7.5 mg/kg/injection, schedule: Q01DX001 (ip), vehicle: carboxymethylcellulose (CMC)) is 152 % of control; the T/C (endpoint: mean survival time, dose: 11.0 mg/kg/injection, schedule: Q01DX001 (ip), vehicle: carboxymethylcellulose (CMC)) is 183 % of control.

On to `CCCCOC(=O)c1cccc([N+](=O)[O-])c1`, for which the T/C was 93 % of control under setting [1], 104 % of control under setting [2] and 105 % of control under setting [3].

For the compound `CCn1c(C)[n+](CC)c2ccc(C(C)=O)cc21`, the T/C by setting is: under setting [4], 104 % of control; under setting [5], 108 % of control; under setting [6], 106 % of control.

Consider `Cc1ccc(N=C=C(c2ccccc2)c2ccccc2)cc1`, for which the T/C by setting is: under setting [7], 94 % of control; under setting [8], 97 % of control; under setting [9], 94 % of control.

For the compound `CC1(C)C(C#N)C(=O)N(Cc2ccccc2)C(=O)C1C#N` (configuration not stated), the T/C is 98 % of control under setting [1], 107 % of control under setting [2] and 98 % of control under setting [3].

In the case of `O=C(NCCSC(=O)Nc1ccccc1)Nc1ccccc1`, the T/C under setting [2] was 95 % of control, the T/C under setting [3] was 94 % of control and the T/C under setting [10] is 94 % of control.

`C(CCSC1=NCCN1)CCSC1=NCCN1`: the T/C is 97 % of control (endpoint: mean survival time, dose: 25.0 mg/kg/injection, schedule: Q01DX009 (ip), vehicle: saline); 103 % of control (endpoint: mean survival time, dose: 50.0 mg/kg/injection, schedule: Q01DX009 (ip), vehicle: saline); 100 % of control (endpoint: mean survival time, dose: 100.0 mg/kg/injection, schedule: Q01DX009 (ip), vehicle: saline).

Turning to `CC(=O)Nc1ncc2ccccc2c1-c1ccc(NC(=O)CN(CCCl)CCCl)cc1`, the T/C (endpoint: mean survival time, dose: 25.0 mg/kg/injection, schedule: Q04DX003 (ip), vehicle: other) is 112 % of control; the T/C (endpoint: mean survival time, dose: 50.0 mg/kg/injection, schedule: Q04DX003 (ip), vehicle: other) was 116 % of control; the T/C under setting [11] was 112 % of control; the T/C under setting [12] is 124 % of control.

Regarding `O=C1SC(c2ccccc2)=S=C1c1ccccc1`, the T/C by setting is: (endpoint: median survival time, dose: 25.0 mg/kg/injection, schedule: Q01DX009 (ip), vehicle: saline with Tween-80) 100 % of control; (endpoint: median survival time, dose: 50.0 mg/kg/injection, schedule: Q01DX009 (ip), vehicle: saline with Tween-80) 105 % of control; (endpoint: median survival time, dose: 100.0 mg/kg/injection, schedule: Q01DX009 (ip), vehicle: saline with Tween-80) 103 % of control; (endpoint: median survival time, dose: 200.0 mg/kg/injection, schedule: Q01DX009 (ip), vehicle: saline with Tween-80) 97 % of control; (endpoint: median survival time, dose: 400.0 mg/kg/injection, schedule: Q01DX009 (ip), vehicle: saline with Tween-80) 101 % of control.

For `NCCC(=O)O`, the T/C under setting [2] is 98 % of control; the T/C under setting [7] was 89 % of control; the T/C under setting [3] was 97 % of control; the T/C under setting [8] was 104 % of control; the T/C under setting [10] is 97 % of control; the T/C under setting [9] was 98 % of control.

Turning to `O=[As](c1ccccc1Br)(c1ccccc1Br)c1ccccc1Br`, the T/C by setting is: under setting [5], 101 % of control; under setting [6], 100 % of control; (endpoint: mean survival time, dose: 200.0 mg/kg/injection, schedule: Q04DX003 (ip), vehicle: saline) 95 % of control.

Regarding `COc1ccc(C2C3CN(C4CCCCC4)C(=O)C3(O)NN2C)cc1` (configuration not stated), the T/C is 91 % of control under setting [13], 88 % of control under setting [14] and 91 % of control under setting [15].

On to `CC(C)(CCC(=S)N1CCOCC1)C1CCCCC1`, for which the T/C is, setting by setting: under setting [7], 97 % of control; under setting [8], 96 % of control; under setting [9], 97 % of control.

For `c1ccc2nc3c(nc2c1)[nH]c1ccccc13`, the T/C runs as follows: under setting [13], 100 % of control; under setting [14], 92 % of control; under setting [15], 89 % of control.

With `CCCCOc1ccc(OCCCC)cc1`, the T/C is, setting by setting: under setting [11], 114 % of control; under setting [12], 97 % of control; (endpoint: mean survival time, dose: 400.0 mg/kg/injection, schedule: Q04DX003 (ip), vehicle: other) 101 % of control.

For `CCC/C=C(\C#N)C(=O)OC`, the T/C (endpoint: mean survival time, dose: 75.0 mg/kg/injection, schedule: Q01DX001 (ip), vehicle: saline) is 97 % of control.

On to `CNCCC(=N)C(=N)CCNC`, for which the T/C was 111 % of control (endpoint: mean survival time, dose: 100.0 mg/kg/injection, schedule: Q04DX002 (ip), vehicle: saline); 106 % of control (endpoint: mean survival time, dose: 200.0 mg/kg/injection, schedule: Q04DX002 (ip), vehicle: saline); 103 % of control (endpoint: mean survival time, dose: 400.0 mg/kg/injection, schedule: Q04DX002 (ip), vehicle: saline).

Regarding `Nc1cc2c3c(cccc3c1)C(=O)N(CCN1CCCC1)C2=O`, the T/C reads like this: (endpoint: mean survival time, dose: 3.12 mg/kg/injection, schedule: Q01DX009 (ip), vehicle: saline with Tween-80) 96 % of control and 102 % of control; (endpoint: mean survival time, dose: 6.25 mg/kg/injection, schedule: Q01DX009 (ip), vehicle: saline with Tween-80) 101 % of control and 107 % of control; (endpoint: mean survival time, dose: 12.5 mg/kg/injection, schedule: Q01DX009 (ip), vehicle: saline with Tween-80) 117 % of control and 110 % of control; (endpoint: mean survival time, dose: 25.0 mg/kg/injection, schedule: Q01DX009 (ip), vehicle: saline with Tween-80) 113 % of control and 119 % of control and 111 % of control; under setting [1], 175 % of control; under setting [2], 86 % of control. Moreover, under setting [3], the T/C was 91 % of control.

In the case of `CCc1ccc(OS(=O)(=O)c2cccc([N+](=O)[O-])c2)cc1`, the T/C is, setting by setting: under setting [2], 98 % of control; under setting [7], 94 % of control; under setting [3], 91 % of control; under setting [8], 105 % of control; under setting [10], 102 % of control; under setting [9], 100 % of control.

As for `CCCCC[CH2][Sn](=[O])[CH2]CCCCC`, the T/C under setting [7] is 100 % of control, the T/C under setting [8] is 97 % of control and the T/C under setting [9] is 111 % of control.

As for `CSc1nc2c(c(=O)[nH]1)c1c(N)ncnc1n2C1OC(CO)C(O)C1O` (configuration not stated), the T/C by setting is: (endpoint: mean survival time, dose: 25.0 mg/kg/injection, schedule: Q01DX005 (ip), vehicle: water) 88 % of control; (endpoint: mean survival time, dose: 50.0 mg/kg/injection, schedule: Q01DX005 (ip), vehicle: water) 94 % of control; (endpoint: mean survival time, dose: 100.0 mg/kg/injection, schedule: Q01DX005 (ip), vehicle: water) 88 % of control; (endpoint: mean survival time, dose: 200.0 mg/kg/injection, schedule: Q01DX005 (ip), vehicle: water) 100 % of control.

Consider `O=S(=O)(O)Sc1ccccc1`, for which the T/C under setting [4] was 97 % of control, the T/C under setting [5] was 97 % of control and the T/C under setting [6] was 98 % of control.

On to `CCOC(=O)CC(c1ccccc1)C(C(=O)OCC)C(=O)OCC` (configuration not stated), for which the T/C is, setting by setting: under setting [2], 91 % of control; under setting [3], 91 % of control; under setting [10], 98 % of control.

For the compound `Cc1ccc([I+]c2ccc(C)cc2)cc1`, the T/C was 98 % of control (endpoint: mean survival time, dose: 0.25 mg/kg/injection, schedule: Q01DX009 (ip), vehicle: Klucel (hydroxypropylcellulose) (HPC)); 98 % of control (endpoint: mean survival time, dose: 0.5 mg/kg/injection, schedule: Q01DX009 (ip), vehicle: Klucel (hydroxypropylcellulose) (HPC)); 105 % of control (endpoint: mean survival time, dose: 1.0 mg/kg/injection, schedule: Q01DX009 (ip), vehicle: Klucel (hydroxypropylcellulose) (HPC)).

Consider `CCOC(=O)Nc1cc(NCc2ccccc2)c(N)c(N)n1`, for which the T/C under setting [13] was 103 % of control and the T/C under setting [14] is 103 % of control.

Source of the values: PubChem BioAssay AID256 (DTP/NCI, 2004).
